Data reported in patent US8557796B2, “Substituted 1-oxa-2,8-diaza-spiro [4,5] dec-2-ene derivatives and related treatment methods” (Gruenenthal GmbH, priority 2001, dated 2013).

Molecular target: T1, NA transporter (Rattus norvegicus, UniProt Q9WTR4)
T1 construct: synaptosomes from rat brain regions were freshly isolated; from tissue; host or cells: P2 synaptosome fraction from hypothalamus of male rat brain
Assay: Noradrenalin uptake inhibition (NA-uptake) in synaptosomes
Type: biochemical
Conditions: rat hypothalamus synaptosomes
From the text: Tests on Noradrenalin Uptake Inhibition (NA-Uptake Inhibition)
In order to be able to carry out these in vitro studies, synaptosomes from rat brain regions were freshly isolated.

T1 sequence (Q9WTR4 1-597): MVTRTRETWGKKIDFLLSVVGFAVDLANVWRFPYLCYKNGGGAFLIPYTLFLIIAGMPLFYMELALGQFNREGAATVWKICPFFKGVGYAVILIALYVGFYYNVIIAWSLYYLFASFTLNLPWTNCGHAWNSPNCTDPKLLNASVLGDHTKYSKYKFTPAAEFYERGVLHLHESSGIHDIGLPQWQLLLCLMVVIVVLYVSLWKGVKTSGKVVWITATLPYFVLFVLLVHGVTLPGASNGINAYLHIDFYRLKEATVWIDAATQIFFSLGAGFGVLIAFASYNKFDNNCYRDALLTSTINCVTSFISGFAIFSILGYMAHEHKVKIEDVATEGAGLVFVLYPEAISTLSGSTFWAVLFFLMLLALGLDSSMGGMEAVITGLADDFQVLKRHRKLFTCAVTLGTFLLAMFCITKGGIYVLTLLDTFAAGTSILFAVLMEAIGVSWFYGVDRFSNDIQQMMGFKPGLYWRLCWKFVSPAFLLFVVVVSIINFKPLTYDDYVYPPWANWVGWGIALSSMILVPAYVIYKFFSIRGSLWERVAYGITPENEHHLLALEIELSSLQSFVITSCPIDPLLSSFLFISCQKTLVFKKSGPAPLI

Row | SMILES | inhibition at 10 µM | NA-uptake, 10 μM, % inhibition
1 | CN(C)S(=O)(=O)N1CCC2(CC1)CC(C(=O)NCCc1ccccc1)=NO2 [Example 7, 8-dimethylsulphamoyl-1-oxa-2,8-diaza-spiro[4,5]dec-2-ene-3-carboxylic acid phenethyl-amide] | 50% | 
2 | CC(NC(=O)C1=NOC2(CCN(S(=O)(=O)c3cccs3)CC2)C1)c1ccccc1 (centres unmarked) [Example 8, 8-(thiophene-2-sulphonyl)-1-oxa-2,8-diaza-spiro[4,5]dec-2-ene-3-carboxylic acid (1-phenyl-ethyl)-amide] | 48% | 
3 | O=C(NCCN1CCCC1)C1=NOC2(CCN(S(=O)(=O)c3ccc(F)c(Cl)c3)CC2)C1 [Example 11] |  | 41%
4 | O=C(NCCc1ccccc1)C1=NOC2(CCN(S(=O)(=O)Cc3ccccc3)CC2)C1 [Example 12, 8-phenylmethanesulphonyl-1-oxa-2,8-diaza-spiro[4,5]dec-2-ene-3-carboxylic acid phenethyl-amide] | 54% | 
5 | CN(C)CCNC(=O)C1=NOC2(CCN(S(=O)(=O)c3ccccc3)CC2)C1 [Example 13, 8-benzenesulphonyl-1-oxa-2,8-diaza-spiro[4,5]dec-2-ene-3-carboxylic acid (2-dimethylamino-ethyl)-amide] | 43% | 
6 | Cc1ccc(S(=O)(=O)N2CCC3(CC2)CC(C(=O)N(CCc2ccccc2)Cc2ccccc2)=NO3)cc1 [Example 18, 8-(toluene-4-sulphonyl)-1-oxa-2,8-diaza-spiro[4,5]dec-2-ene-3-carboxylic acid benzyl-phenethyl-amide] | 64% | 
7 | O=C(NC1CCCC1OCc1ccccc1)C1=NOC2(CCN(S(=O)(=O)Cc3ccccc3)CC2)C1 (centres unmarked) [Example 20, 8-phenylmethanesulphonyl-1-oxa-2,8-diaza-spiro[4,5]dec-2-ene-3-carboxylic acid (2-benzyloxy-cyclopentyl)-amide] | 70% | 
8 | Cc1ccc(S(=O)(=O)N2CCC3(CC2)CC(C(=O)Nc2ccc(Oc4ccccc4)cc2)=NO3)cc1 [Example 22, 8-(toluene-4-sulphonyl)-1-oxa-2,8-diaza-spiro[4,5]dec-2-ene-3-carboxylic acid (4-phenoxy-phenyl)-amide] | 42% | 
9 | Cc1ccc(C(C)NC(=O)C2=NOC3(CCN(S(=O)(=O)c4cccs4)CC3)C2)cc1 (centres unmarked) [Example 23, 8-(thiophene-2-sulphonyl)-1-oxa-2,8-diaza-spiro[4,5]dec-2-ene-3-carboxylic acid (1-p-tolyl-ethyl)-amide] | 49% | 
10 | O=C(NCc1ccc2c(c1)OCO2)C1=NOC2(CCN(S(=O)(=O)c3ccc(Cl)s3)CC2)C1 [Example 30, 8-(5-chloro-thiophene-2-sulphonyl)-1-oxa-2,8-diaza-spiro[4,5]dec-2-ene-3-carboxylic acid (benzo[1,3]dioxol-5-ylmethyl)-amide] | 48% | 
11 | Cc1ccc(S(=O)(=O)N2CCC3(CC2)CC(C(=O)N2CCN(C(C)c4ccccc4)CC2)=NO3)cc1 (stereo not drawn) [Example 32, [4-(1-phenyl-ethyl)-piperazin-l-yl]-[8-(toluene-4-sulphonyl)-1-oxa-2,8-diaza-spiro[4,5]dec-2-en-3-yl]-methanone] |  | 43%
12 | O=C(NCc1cccs1)C1=NOC2(CCN(S(=O)(=O)c3ccc([N+](=O)[O-])cc3)CC2)C1 [Example 38, 8-(4-nitro-benzenesulphonyl)-1-oxa-2,8-diaza-spiro[4,5]dec-2-ene-3-carboxylic acid (thiophen-2-ylmethyl)-amide] | 44% | 
13 | Cc1ccc(C(C)NC(=O)C2=NOC3(CCN(S(=O)(=O)c4ccc(C)cc4)CC3)C2)cc1 (centres unmarked) [Example 45, 8-(toluene-4-sulphonyl)-1-oxa-2,8-diaza-spiro[4,5]dec-2-ene-3-carboxylic acid (1-p-tolyl-ethyl)-amide] | 59% | 
14 | O=C(NC1CCCC1OCc1ccccc1)C1=NOC2(CCN(S(=O)(=O)c3cccs3)CC2)C1 (centres unmarked) [Example 47, 8-(thiophene-2-sulphonyl)-1-oxa-2,8-diaza-spiro[4,5]dec-2-ene-3-carboxylic acid (2-benzyloxy-cyclopentyl)-amide] | 92% | 
15 | Cc1ccc(S(=O)(=O)N2CCC3(CC2)CC(C(=O)NC2CC2c2ccccc2)=NO3)cc1 (centres unmarked) [Example 75, 8-(toluene-4-sulphonyl)-1-oxa-2,8-diaza-spiro[4,5]dec-2-ene-3-carboxylic acid (2-phenyl-cyclopropyl)-amide] | 65% | 
16 | O=C(NCCc1cccc(F)c1)C1=NOC2(CCN(S(=O)(=O)Cc3ccccc3)CC2)C1 [Example 78, 8-phenylmethanesulphonyl-1-oxa-2,8-diaza-spiro[4,5]dec-2-ene-3-carboxylic acid [2-(3-fluorophenyl)-ethyl]-amide] | 42% | 
17 | O=C(NCC(c1ccccc1)c1ccccc1)C1=NOC2(CCN(S(=O)(=O)c3ccc(Cl)s3)CC2)C1 [Example 79, 8-(5-chloro-thiophene-2-sulphonyl)-1-oxa-2,8-diaza-spiro[4,5]dec-2-ene-3-carboxylic acid (2,2-diphenyl-ethyl)-amide] | 58% | 
18 | CN(C)S(=O)(=O)N1CCC2(CC1)CC(C(=O)N1CCN(CCCc3ccccc3)CC1)=NO2 [Example 80, 3-[4-(3-phenyl-propyl)-piperazine-1-carbonyl]-1-oxa-2,8-diaza-spiro[4,5]dec-2-ene-8-sulphonic acid dimethylamide] | 60% | 

Row | SMILES | inhibition at 10 µM | NA-uptake, 10 μM, % inhibition
19 | CN(CCCNC(=O)C1=NOC2(CCN(S(=O)(=O)c3ccc(Cl)s3)CC2)C1)c1ccccc1 [Example 89] |  | 68%
20 | O=C(NCc1cccs1)C1=NOC2(CCN(C(=O)COc3cccc(Cl)c3)CC2)C1 [Example 96, 8-[2-(3-chloro-phenoxy)-acetyl]-1-oxa-2,8-diaza-spiro[4,5]dec-2-ene-3-carboxylic acid (thiophen-2-ylmethyl)-amide] | 49% | 
21 | O=C(C1=NOC2(CCN(S(=O)(=O)c3ccc(OC(F)(F)F)cc3)CC2)C1)N(CCc1ccccc1)Cc1ccccc1 [Example 97, 8-(4-trifluoromethoxy-benzenesulphonyl)-1-oxa-2,8-diaza-spiro[4,5]dec-2-ene-3-carboxylic acid benzyl-phenethyl-amide] | 83% | 
22 | O=C(C1=NOC2(CCN(S(=O)(=O)c3cc(Cl)ccc3Cl)CC2)C1)N(CCc1ccccc1)Cc1ccccc1 [Example 98, 8-(2,5-dichloro-benzenesulphonyl)-1-oxa-2,8-diaza-spiro[4,5]dec-2-ene-3-carboxylic acid benzyl-phenethyl-amide] | 82% | 
23 | O=C(NCc1ccccc1)C1=NOC2(CCN(C(=O)c3ccncc3)CC2)C1 [Example 102, 8-(pyridine-4-carbonyl)-1-oxa-2,8-diaza-spiro[4,5]dec-2-ene-3-carboxylic acid benzylamide] | 48% | 
24 | C=C(C)CN(CC)C(=O)C1=NOC2(CCN(S(=O)(=O)c3ccc(OC(F)(F)F)cc3)CC2)C1 [Example 103, 8-(4-trifluoromethoxy-benzenesulphonyl)-1-oxa-2,8-diaza-spiro[4,5]dec-2-ene-3carboxylic acid ethyl-(2-methyl-allyl)-amide] | 47% | 
25 | Cc1oc(C(C)(C)C)cc1C(=O)N1CCC2(CC1)CC(C(=O)NCC(C)C)=NO2 [Example 105, 8-(5-tert-butyl-2-methyl-furan-3-carbonyl)-1-oxa-2,8-diaza-spiro[4,5]dec-2-ene-3-carboxylic acid isobutyl-amide] | 53% | 
26 | O=C(NCc1cccs1)C1=NOC2(CCN(C(=O)C=Cc3ccccc3)CC2)C1 [Example 106] |  | 47%
27 | O=C(NCC1CC1)C1=NOC2(CCN(C(=O)c3ccc(C(F)(F)F)cc3)CC2)C1 [Example 107, 8-(4-trifluoromethyl-benzoyl)-1-oxa-2,8-diaza-spiro[4,5]dec-2-ene-3-carboxylic acid cyclopropylmethyl-amide] | 42% | 
28 | O=C(NCC1CC1)C1=NOC2(CCN(C(=O)c3ccc(SC(F)(F)F)cc3)CC2)C1 [Example 108, 8-(4-trifluoromethylsulphanyl-benzoyl)-1-oxa-2,8-diaza-spiro[4,5]dec-2-ene-3-carboxylic acid cyclopropylmethyl-amide] | 42% | 
29 | O=C(NCC1CC1)C1=NOC2(CCN(C(=O)c3ccc(C(F)(F)F)c(F)c3)CC2)C1 [Example 110, 8-(3-fluoro-4-trifluoromethyl-benzoyl)-1-oxa-2,8-diaza-spiro[4,5]dec-2-ene-3-carboxylic acid cyclopropylmethyl-amide] | 45% | 
30 | CCSCCNC(=O)C1=NOC2(CCN(S(=O)(=O)CC34CCC(CC3=O)C4(C)C)CC2)C1 (centres unmarked) [Example 111, 8-(7,7-dimethyl-2-oxo-bicyclo[2.2.1]hept-1-ylmethane-sulphonyl)-1-oxa-2,8-diaza-spiro[4,5]dec-2-ene-3-carboxylic acid (2-ethylsulphanyl-ethyl)-amide] | 40% | 
31 | O=C(NCC1CCCO1)C1=NOC2(CCN(C(=O)c3ccc(F)cc3F)CC2)C1 (centres unmarked) [Example 112] |  | 45%
32 | COC(=O)CCC(=O)N1CCC2(CC1)CC(C(=O)NCc1cccs1)=NO2 [Example 114, 4-oxo-4-{3-[(thiophen-2-ylmethyl)-carbamoyl]-1-oxa-2,8-diaza-spiro[4,5]dec-2-ene-8-yl}-butyric acid methyl ester] | 42% | 
33 | CCSc1ncccc1C(=O)N1CCC2(CC1)CC(C(=O)NCc1ccccc1)=NO2 [Example 115, 8-(2-ethylsulphanyl-pyridine-3-carbonyl)-1-oxa-2,8-diaza-spiro[4,5]dec-2-ene-3-carboxylic acid benzylamide] | 55% | 
34 | CCOC(=O)CCNC(=O)C1=NOC2(CCN(S(=O)(=O)c3ccccc3Cl)CC2)C1 [Example 116, 3-{[8-(2-chloro-benzenesulphonyl)-1-oxa-2,8-diaza-spiro[4,5]dec-2-ene-3-carbonyl]-amino}-propionic acid ethyl ester] | 60% | 
35 | O=C(NCC1CC1)C1=NOC2(CCN(C(=O)c3ccc(OC(F)(F)F)cc3)CC2)C1 [Example 117, 8-(4-trifluoromethoxy-benzoyl)-1-oxa-2,8-diaza-spiro[4,5]dec-2-ene-3-carboxylic acid cyclopropylmethyl-amide] | 46% | 
